This note sets out measurements from patent publication US8299267B2, “(3-hydroxy-4-amino-butan-2-yl) -3- (2-thiazol-2-yl-pyrrolidine-1-carbonyl) benzamide derivatives and related compounds as beta-secretase inhibitors for treating” (CoMentis, Inc., priority 2007, dated 2012).

The target of one experiment is memapsin 2 (Homo sapiens, UniProt P56817). In words: Inhibition of memapsin 2 beta-secretase activity toward fluorogenic substrate FS-2. The note with it: memapsin 2, pH 4, 37° C., 20 minutes pre-incubation, substrate FS-2; read-out: M2Ki. It is filed as biochemical. The protocol: Potency of compounds were determined by measurement of their inhibition of memapsin 2 activity toward a fluorescent substrate. Kinetic inhibition experiments were performed using the procedure as described in Ermolieff, et al. (Biochemistry 39:12450-12456 (2000), the teachings of which are incorporated hereby in their entirety). Briefly, assays were performed at pH 4, 37° C., by pre-incubation of memapsin 2 enzyme with compound for 20 minutes. Activity measurements were initiated by addition of a fluorogenic substrate FS-2 (Bachem Americas, Torrance, Calif.) MCA-SEVNLDAEFK-DNP (SEQ ID NO.: 2). The substrate was derived from 10 amino acids of the human amyloid precursor protein (APP), with the Swedish variant amino acids at the beta-secretase cleavage site. The terminal amino acid was modified from arginine to lysine to facilitate derivatization with a functional group for detection by autofluorescence. The amino acid sequence of the “core” peptide of the substrate is SEVNLDAEFK (SEQ ID NO.: 3). The amino terminus was derivatized with (7-methoxycoumarin-4-yl)acetyl (MCA), and the epsilon amine of the lysine side chain of the terminal residue (K in sequence SEVNLDAEFK (SEQ ID NO.: 4)) was derivatized with 2,4-dinitrophenyl (DNP).
Sequence of memapsin 2 (P56817 46-501): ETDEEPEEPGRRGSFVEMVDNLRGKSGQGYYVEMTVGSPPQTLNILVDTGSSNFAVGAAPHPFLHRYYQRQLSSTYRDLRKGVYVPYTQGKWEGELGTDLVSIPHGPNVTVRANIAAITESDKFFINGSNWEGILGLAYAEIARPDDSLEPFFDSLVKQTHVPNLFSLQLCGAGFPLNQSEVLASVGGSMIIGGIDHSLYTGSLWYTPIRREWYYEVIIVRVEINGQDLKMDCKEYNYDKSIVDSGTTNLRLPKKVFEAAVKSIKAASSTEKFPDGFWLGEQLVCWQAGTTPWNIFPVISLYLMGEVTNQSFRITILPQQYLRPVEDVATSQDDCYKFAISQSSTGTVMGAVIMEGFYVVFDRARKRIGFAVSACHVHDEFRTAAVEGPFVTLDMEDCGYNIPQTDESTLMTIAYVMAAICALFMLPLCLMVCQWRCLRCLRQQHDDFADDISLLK

Experiment [1] deals with Aβ production in Chinese hamster ovary cells that over-express human APP695 with the London and Swedish mutations. In words: Cellular Aβ IC50 determination (Aβ40 sandwich ELISA). Conditions: Cricetulus griseus; Aβ40 in CHO cells over-expressing human APP695, 24 h incubation. It is filed as cell-based. Here is the method:
The potency of compounds against memapsin 2 activity was determined in a cellular assay of Aβ production. […] Chinese hamster ovary cells that over-express human APP695 with the London and Swedish mutations were seeded in multi-well plates at 10% confluency. Compounds are dissolved in DMSO to concentrations near 1 mM, and diluted into culture media to a final concentration near 4 μM (final 0.4% DMSO). Compounds were diluted serially and applied to cells in multi-well plates 48 h after seeding. Incubation was continued in 5% CO2 at 37° C. for 24 h. Aliquots were removed and assayed for Aβ40 content using a sandwich ELISA (BioSource International). Amount of Aβ40 over the range of concentration of compounds, relative to control incubations, were fit to a 4-parameter IC50 model.

Turning to `COC[C@H]1CCCN1C(=O)c1cc(C)cc(C(=O)N[C@@H](Cc2ccccc2)[C@H](O)CNCc2cccc(OC)c2)c1` [Compound 3, N-((2S,3R)-3-hydroxy-4-(3-methoxybenzylamino)-1-phenylbutan-2-yl)-3-((R)-2-(methoxymethyl)pyrrolidine-1-carbonyl)-5-methylbenzamide], the Ki on memapsin 2 was under 100 nM. Further, in experiment [1], the IC50 was under 300 nM. Take `COc1cccc(CNC[C@@H](O)[C@H](Cc2ccccc2)NC(=O)c2cccc(C(=O)N3CCCC[C@@H]3c3nc(C)cs3)c2)c1` [Compound 5, N-((2S,3R)-3-hydroxy-4-(3-methoxybenzylamino)-1-phenylbutan-2-yl)-3-((R)-2-(4-methylthiazol-2-yl)piperidine-1-carbonyl)benzamide]: the Ki at memapsin 2 was under 100 nM. Further, the IC50 in experiment [1] is over 501 nM. With `COc1cccc(CNC[C@@H](O)[C@H](Cc2ccccc2)NC(=O)c2cccc(C(=O)N3CSC[C@@H]3c3nc(C)cs3)c2)c1` [Compound 8, N-((2S,3R)-3-hydroxy-4-(3-methoxybenzylamino)-1-phenylbutan-2-yl)-3-((R)-4-(4-methylthiazol-2-yl)thiazolidine-3-carbonyl)benzamide], the Ki on memapsin 2 was under 100 nM. This compound also registered an IC50 in experiment [1] of under 300 nM.

As for `COc1cccc(CNC[C@@H](O)[C@H](Cc2ccccc2)NC(=O)c2cc(OC)cc(C(=O)N3CCC[C@@H]3c3nc(C)cs3)c2)c1` [Compound 11, N-((2S,3R)-3-hydroxy-4-(3-methoxybenzylamino)-1-phenylbutan-2-yl)-3-methoxy-5-((R)-2-(4-methylthiazol-2-yl)pyrrolidine-1-carbonyl)benzamide], on memapsin 2, the Ki is under 100 nM. The same compound came in with an IC50 in experiment [1] of under 300 nM. In the case of `COc1cc(C(=O)N[C@@H](Cc2ccccc2)[C@H](O)CNCc2cccc(C(C)(C)C)c2)cc(C(=O)N2CCC[C@@H]2c2nc(C)cs2)c1` [Compound 16, N-((2S,3R)-4-(3-tert-butylbenzylamino)-3-hydroxy-1-phenylbutan-2-yl)-3-methoxy-5-((R)-2-(4-methylthiazol-2-yl)pyrrolidine-1-carbonyl)benzamide], the Ki on memapsin 2 is under 100 nM. Besides, in experiment [1], the IC50 is under 300 nM.

Turning to `Cc1csc([C@H]2CCCN2C(=O)c2cc(C(=O)N[C@@H](Cc3ccccc3)[C@H](O)CNCc3cccc(C(F)(F)F)c3)nc(N(C)C)n2)n1` [Compound 100, 2-(dimethylamino)-N-((2S,3R)-3-hydroxy-1-phenyl-4-(3-(trifluoromethyl)benzylamino)butan-2-yl)-6-((R)-2-(4-methylthiazol-2-yl)pyrrolidine-1-carbonyl)pyrimidine-4-carboxamide], the Ki at memapsin 2 was under 100 nM. The same measure, in the same setting: to `Cc1csc([C@H]2CCCN2C(=O)c2cccc(C(=O)N[C@@H](Cc3ccccc3)[C@H](O)CNCc3cc(C(C)C)on3)c2)n1` [Compound 106, N-((2S,3R)-3-hydroxy-4-((5-isopropylisoxazol-3-yl)methylamino)-1-phenylbutan-2-yl)-3-((R)-2-(4-methylthiazol-2-yl)pyrrolidine-1-carbonyl)benzamide] belongs under 100 nM; to `Cc1coc([C@H]2CCCN2C(=O)c2cccc(C(=O)N[C@@H](Cc3ccccc3)[C@H](O)CNC3CCCCC3)c2)n1` [Compound 107, N-((2S,3R)-4-(cyclohexylamino)-3-hydroxy-1-phenylbutan-2-yl)-3-((R)-2-(4-methyloxazol-2-yl)pyrrolidine-1-carbonyl)benzamide], over 201 nM.

As for `C=C(C)c1cccc(CNC[C@@H](O)[C@H](Cc2ccccc2)NC(=O)c2cc(C)cc(C(=O)N3CCC[C@@H]3c3nc(C)co3)c2)c1` [Compound 108, N-((2S,3R)-3-hydroxy-1-phenyl-4-(3-(prop-1-en-2-yl)benzylamino)butan-2-yl)-3-methyl-5-((R)-2-(4-methyloxazol-2-yl)pyrrolidine-1-carbonyl)benzamide], the Ki at memapsin 2 was under 100 nM.

`CCn1cc(CNC[C@@H](O)[C@H](Cc2ccccc2)NC(=O)c2cccc(C(=O)N3CCC[C@@H]3c3nc(C)co3)c2)cn1` [Compound 109, N-((2S,3R)-4-((1-ethyl-1H-pyrazol-4-yl)methylamino)-3-hydroxy-1-phenylbutan-2-yl)-3-((R)-2-(4-methyloxazol-2-yl)pyrrolidine-1-carbonyl)benzamide]: the Ki on memapsin 2 was in the range of 101 to 200 nM. In the case of `CCn1cc(CNC[C@@H](O)[C@H](Cc2ccccc2)NC(=O)c2cc(C)cc(C(=O)N3CCC[C@@H]3c3nc(C)co3)c2)cn1` [Compound 110, N-((2S,3R)-4-((1-ethyl-1H-pyrazol-4-yl)methylamino)-3-hydroxy-1-phenylbutan-2-yl)-3-methyl-5-((R)-2-(4-methyloxazol-2-yl)pyrrolidine-1-carbonyl)benzamide], the Ki on memapsin 2 was under 100 nM. With `Cc1coc([C@H]2CCCN2C(=O)c2cccc(C(=O)N[C@@H](Cc3ccccc3)[C@H](O)CNCc3cncc(C(C)(C)C)c3)c2)n1` [Compound 111, N-((2S,3R)-4-((5-tert-butylpyridin-3-yl)methylamino)-3-hydroxy-1-phenylbutan-2-yl)-3-((R)-2-(4-methyloxazol-2-yl)pyrrolidine-1-carbonyl)benzamide], the Ki on memapsin 2 was under 100 nM. On the same count and under the same terms, as for `Cc1cc(C(=O)N[C@@H](Cc2ccccc2)[C@H](O)CNCc2cncc(C(C)(C)C)c2)cc(C(=O)N2CCC[C@@H]2c2nc(C)co2)c1` [Compound 112, N-((2S,3R)-4-((5-tert-butylpyridin-3-yl)methylamino)-3-hydroxy-1-phenylbutan-2-yl)-3-methyl-5-((R)-2-(4-methyloxazol-2-yl)pyrrolidine-1-carbonyl)benzamide], the figure is under 100 nM. Take `Cc1cc(C(=O)N[C@@H](Cc2ccccc2)[C@H](O)CNCc2cncc(C(C)(F)F)c2)cc(C(=O)N2CCC[C@@H]2c2nc(C)co2)c1` [Compound 113, N-((2S,3R)-4-((5-(1,1-difluoroethyl)pyridin-3-yl)methylamino)-3-hydroxy-1-phenylbutan-2-yl)-3-methyl-5-((R)-2-(4-methyloxazol-2-yl)pyrrolidine-1-carbonyl)benzamide]: the Ki at memapsin 2 was under 100 nM. The same measure, in the same setting: as for `Cc1coc([C@H]2CCCN2C(=O)c2cccc(C(=O)N[C@@H](Cc3ccccc3)[C@H](O)CNCc3cccc(OC(F)(F)F)c3)c2)n1` [Compound 114, N-((2S,3R)-3-hydroxy-1-phenyl-4-(3-(trifluoromethoxy)benzylamino)butan-2-yl)-3-((R)-2-(4-methyloxazol-2-yl)pyrrolidine-1-carbonyl)benzamide], the figure is under 100 nM; as for `Cc1cc(C(=O)N[C@@H](Cc2ccccc2)[C@H](O)CNCc2cccc(OC(F)(F)F)c2)cc(C(=O)N2CCC[C@@H]2c2nc(C)co2)c1` [Compound 115, N-((2S,3R)-3-hydroxy-1-phenyl-4-(3-(trifluoromethoxy)benzylamino)butan-2-yl)-3-methyl-5-((R)-2-(4-methyloxazol-2-yl)pyrrolidine-1-carbonyl)benzamide], under 100 nM; as for `Cc1cc(C(=O)N[C@@H](Cc2ccccc2)[C@H](O)CNCc2cncc(C(C)(F)F)c2)cc(C(=O)N2CCC[C@@H]2c2nc(C)cs2)c1` [Compound 116, N-((2S,3R)-4-((5-(1,1-difluoroethyl)pyridin-3-yl)methylamino)-3-hydroxy-1-phenylbutan-2-yl)-3-methyl-5-((R)-2-(4-methylthiazol-2-yl)pyrrolidine-1-carbonyl)benzamide], under 100 nM.
